For assay [1], the system named is 22Rv.1. Put plainly: Clonogenic assay (clonal expansion). Format: cell-based. The note with it: Prostate Cancer (22Rv.1), AR+, inhibition of clonal expansion. The protocol: (§1) Cells were seeded at a density of 1-2×10^3 cells/well in a 6 well plate in RPMI 1640 supplemented with 10% FBS, penicillin (100 u/ml), streptomycin (100 u/ml), and L-glutamine (2 mM). Cells were treated with increasing concentrations of X15695 and cultured for 14 to 21 days. Medium and compounds were exchanged after 7 days. Cells were fixed with methanol/ acetic acid mixture (3:1 v/v) and the formation of colonies was visualized using 0.5% crystal violet (w/v) in 20% methanol (v/v). Plates were scanned in a conventional office scanner (Epson). The area covered by colonies was calculated using the ColonyArea Plugin for ImageJ.

For assay [2], the system named is ZR75-1. Description: Clonogenic assay (clonal expansion). The note with it: Breast Cancer (ZR75-1), ER+, inhibition of clonal expansion. The class given is cell-based. The protocol:
as §1

Assay [3] deals with MCF-7. Description: Clonogenic assay (clonal expansion). Format: cell-based. Particulars: Breast Cancer (MCF-7), ER+, inhibition of clonal expansion. On the procedure:
as §1

Assay [4] deals with LNCaP. Put plainly: Clonogenic assay (clonal expansion). Format: cell-based. Particulars: Prostate Cancer (LNCaP), AR+, inhibition of clonal expansion. On the procedure:
as §1

The subject of assay [5] is ER^+ and AR^+ breast and prostate cancer cells. Particulars: proliferation of ER^+ and AR^+ breast and prostate cancer cells, previously reported; cited from earlier work.
In assay [6] the test system is T47D. Put plainly: Clonogenic assay (clonal expansion). The class given is cell-based. Particulars: Homo sapiens; Breast Cancer (T47D), ER+; inhibition of clonal expansion. The protocol:
as §1

In assay [7] the test system is DU145. Put plainly: Clonogenic assay (clonal expansion). Format: cell-based. Particulars: Homo sapiens, DU-145; Prostate Cancer (DU145), AR-; inhibition of clonal expansion. On the procedure:
as §1

The subject of assay [8] is PC3. Description: Clonogenic assay (clonal expansion). Format: cell-based. The note with it: Homo sapiens; Prostate Cancer (PC3), AR-; inhibition of clonal expansion. The protocol:
as §1

The test system of assay [9] is TRMCF-7 cells. Description: Clonogenic assay (clonal expansion). Format: cell-based. The protocol:
as §1

In assay [10] the test system is TRMCF-7 cells (tamoxifen resistant MCF-7 cells). Description: MTT cell viability assay. Format: cell-based. Particulars: 48 h. The protocol: […] Cells transfected with siRNA were incubated for 72 h after X15695 addition. Thereafter, the medium was exchanged for a fresh medium containing 0.5 mg/ml MTT (Sigma-Aldrich) and incubated at 37°C for 1 h to 4 h (depending on cell line) until intracellular purple formazan crystals were formed. The MTT solution was removed, and the purple crystals were dissolved in isopropanol and the optical absorbance at 595 nm was recorded using SpectraMax iD3, Molecular Devices, San Jose, CA, USA.
Background: Tetrazolium assays rely on reduction of a dye to a coloured formazan, in cell work by metabolically active cells.

For assay [11], the system named is ERα. Particulars: MCF-7 cells. The protocol:
For Western blotting, cells were lysed in NP-40 lysis buffer (1% NP-40, 50 mM Tris-HCl, pH 8.0, 150 mM NaCl, 5 mM EDTA) or 1× passive lysis buffer (Promega, Germany) for 15 min on ice. Cell debris was removed by centrifugation at 13,000 rpm for 10 min and used for SDS-polyacrylamide gel electrophoresis (PAGE) and Western blotting.
Western Blotting was carried out using standard protocols with antibodies: p53 (clone DO1), p53 (Sp5, Thermo Fisher Scientific Karlsruhe, Germany), Mdm2 (4B2, Abcam, Cambridge, UK). […] Secondary goat anti-mouse and goat anti-rabbit antibodies were purchased from DAKO (Bollschweil, Germany).

Results on 9 compounds are retold here after EP4417202A1, “ANTI-CANCER ACTION OF BAG1-SELECTIVE IMIDAZOPYRIDINE COMPOUNDS IN STEROID HORMONE RECEPTOR-POSITIVE BREAST AND PROSTATE CANCER” (Karlsruher Institut für Technologie, priority 2023, dated 2024).

One may read the IC50 as the concentration needed to halve the response being measured. A high value points to weaker potency in that assay.

Take `Fc1ccc(-c2nc3cc(C(F)(F)F)ccc3s2)cc1` [Compound A4B17, reference compound]: the IC50 is 3400 nM in [1], 110 nM in [2], 1280 nM in [3] and 1600 nM in assay [4]. Moreover, in [5], the IC50 values result is recorded as “in the micromolar range”.
Consider `Fc1ccc(-c2cn3cc(Br)ccc3n2)cc1` [Compound X19168, 6-bromo-2-(4-fluorophenyl)imidazo[1,2-a]pyridine], for which the IC50 came out at 641 ± 246 nM in assay [1] (Homo sapiens, 22Rv1) and 12 nM in [3] (Homo sapiens, MCF7).
With `Fc1ccccc1-c1cn2cc(C(F)(F)F)cc(Cl)c2n1` [Compound X19720, 8-Chloro-2-(2-fluorophenyl)-6-(trifluoromethyl)imidazo[1,2-a]pyridine], the IC50 was 4.4 ± 1.6 nM in assay [1] (Homo sapiens, 22Rv1); 14.5 nM in assay [3] (Homo sapiens, MCF7); less than 0.1 nM in [4] (Homo sapiens).
With `Cc1cc(Cl)c2nc(-c3ccc(F)cc3)cn2c1` [Compound X19724, 8-Chloro-2-(4-fluorophenyl)-6-methylimidazo[1,2-a]pyridine], the IC50 in [1] (Homo sapiens, 22Rv1) turned out to be 4.4 nM; in assay [2] (Homo sapiens, ZR-75-1), 16.2 ± 4.7 nM; in [6], 86.1 ± 49.1 nM; in assay [3] (Homo sapiens, MCF7), 3.3 ± 0.9 nM; in [4] (Homo sapiens), 0.2 nM.
As for `Cc1cc(Cl)c2nc(-c3ccccc3)cn2c1` [Compound X19728, 8-Chloro-6-methyl-2-phenylimidazo[1,2-a]pyridine], the IC50 was 48.5 ± 13.3 nM in assay [1] (Homo sapiens, 22Rv1); 39.2 ± 24.3 nM in assay [2] (Homo sapiens, ZR-75-1); 6 ± 2.8 nM in assay [3] (Homo sapiens, MCF7).
In the case of `Fc1ccc(-c2cn3cc(C(F)(F)F)ccc3n2)cc1` [Compound X20046, 2-(4-Fluorophenyl)-6-(trifluoromethyl)imidazo[1,2-a]pyridine], the IC50 was 7.5 ± 3.2 nM in assay [1] (Homo sapiens, 22Rv1); 31.8 nM in assay [2] (Homo sapiens, ZR-75-1); 57.1 nM in assay [6]; 10 ± 4.3 nM in [3] (Homo sapiens, MCF7); 0.1 nM in assay [4] (Homo sapiens).
For the compound `FC(F)(F)c1cc(Cl)c2nc(-c3ccccc3)cn2c1` [X19166/ X15696, 8-Chloro-2-phenyl-6-(trifluoromethyl)imidazo[1,2-a]pyridine], the IC50 in assay [1] (Homo sapiens, 22Rv1) turned out to be 22.5 ± 6.6 nM; in [2] (Homo sapiens, ZR-75-1), 10.2 ± 2.7 nM; in assay [6] it was 44.7 ± 11.4 nM; in assay [7], 3580 nM; in assay [8], 11900 nM; in [3] (Homo sapiens, MCF7), 7.9 ± 1.9 nM. This compound registered an IC50 in assay [4] (Homo sapiens) of less than 0.1 nM.
As to `C[C@]12CC[C@@H]3c4ccc(O)cc4C[C@@H](CCCCCCCCC[S+]([O-])CCCC(F)(F)C(F)(F)F)[C@H]3[C@@H]1CC[C@@H]2O` (stereo partly drawn) [fulvestrant, reference compound], the “inhibition of clonal expansion” value in [9] is “slightly more efficacious than X15695”. Besides, the inhibition of viability result in assay [10] is given as “comparable activities”. For the same compound, the “ERα downregulation over time” value in assay [11] (1 µM, time course) is “rapidly downregulated ERα level within 4 h to 8 h recovering gradually thereafter”. The “concentration sufficient to downregulate ERα” value in assay [11] (8 h) is on record as no more than 1 nM.
`CC/C(=C(\c1ccccc1)c1ccc(OCCN(C)C)cc1)c1ccccc1` [tamoxifen]: the “inhibition of clonal expansion” value in assay [9] was “inactive”. In addition, the inhibition of viability entry in [10] was “ineffective”.
